How the values were obtained:
[1] = test system: C57BL/6J male mice, high-fat diet obesity model; test: Weight loss trial in a high-fat feeding obesity model; assay type: in vivo; conditions: obese C57BL/6J mice; 50 or 100 mg/kg daily gavage; after 1 month of treatment
Description: C57BL/6J male mice were fed with high-fat diet (60 kcal %) and low-fat diet (10 kcal %), respectively. After 16 weeks, the obesity model was successfully established (the body weight of high-fat diet was higher than 20% of the body weight of low-fat diet). They were divided into blank group, 12 high dose group (100 mg/kg), 12 low dose group (50 mg/kg) and orlistat group (50 mg/kg). The mice in the control group were given normal saline as the control, and the daily afternoon gavage of the drug for 4 weeks.

male db/db mice = test: Insulin tolerance and liver function improvement test in male db/db mouse model; assay type: in vivo
Description: Six-week-old male db/db mice were randomly divided into 6 groups of 12 mice in each group: Model group (M, distilled water), metformin group (Meft, 200 mg/kg/d), lovastatin group (6 mg/kg), compound 12 low dose group (20 mg/kg/d), compound 12 middle dose group (40 mg/kg/d), compound 12 high dose group (80 mg/kg/d). They were raised in a constant temperature of 25° C. and fed and drinking freely. The mice were administrated by gavage at a dose of […] for 6 weeks, and the body weight and fasting blood glucose were measured regularly during the period.
Insulin tolerance test (ITT) was performed with […] (1.0 U/ml, 1.0 U/kg) and fasting for 4 hours in the morning. In the afternoon experiment, weight was weighed, blood glucose was measured before insulin injection, insulin injection volume was calculated according to body weight, and blood glucose was measured at 15 min, 30 min, 45 min, and 60 min. At the end of the experiment, each cage was supplemented with feed.

MNK2 = MNK2 (Homo sapiens, UniProt Q9HBH9); test: MNK2 kinase inhibition assay (LANCE Ultra kinase activity assay, PerkinElmer); assay type: biochemical; conditions: 100 μM ATP
Description: (§1) MNK1 and MNK2 kinase inhibition assays were performed using LANCE Ultra kinase activity assay developed by PerkinElmer. […] The test steps are as follows: At 25° C., 1.00 ng MNK1 or 0.05 ng MNK2 was prepared with different concentrations (10000, 1000, 100, 10, 1 nM) of the tested compound to form a total volume of 10 μL reaction mixture (MNK1: 12.5 nM CREB, 450 μM ATP, 2 mM DTT, 1× buffer; MNK2: 12.5 nM CREB, 100 μM ATP, 2 mM DTT, 1×buffer), and incubation for 60 min. The reaction was terminated by adding 5 μL EDTA/Detection buffer and 5 μL Eu-CREB/Detection buffer. The ratio of HTRF signals at 615 nm and 665 nm was detected after 60 min of incubation. The inhibition rate was calculated by measuring the compounds at 1000 nM.
(§2) Then five different concentrations (10000, 1000, 100, 10, 1 nM) of the tested compounds were measured, and the IC50 value was calculated according to the inhibition rate fitting curve.

[2] = test system: STZ+ high-fat fed type 2 diabetic Kunming mice; test: Hypoglycemic test in STZ+ high-fat fed diabetic mouse model; assay type: in vivo; conditions: for blood glucose: gavage, 8 weeks (FIG. 1)
Description: A total of 50 male Kunming mice were fed in a constant temperature of 25° C. with free access to food and water. After 5 days of adaptive feeding, the mice were divided into two groups for the first time. The first group (n=10) was the blank group (C) fed with normal diet, and the rest were the second group (n=40) fed with 60% high-fat diet to induce high-fat model and free access to water for 4 weeks. At the fifth week, the mice in the second group were injected with streptozotocin (STZ) to induce type 2 diabetes model. The total injection dose was 150 mg/kg, and the feeding conditions were unchanged. Type 2 diabetic mice with blood glucose levels higher than 11 mmol/L were divided into model group (M, n=10) and […]. Distilled water), metformin group (Meft, 225 mg/kg/d), compound 12 low-dose group (2A-L, 50 mg/kg/d), compound 12 high-dose group (2A-H, 100 mg/kg/d). The […] in group M were given distilled water by gavage every morning, and the dosage was Meft: 225 mg/kg. 2A-L: 50 mg/kg; 2A-H: 100 mg/kg. The mice were administrated by gavage at a dose of […] for 8 weeks, and the body weight and fasting blood glucose were measured regularly during the period.

MNK1 = MNK1 (Homo sapiens, UniProt Q9BUB5); test: MNK1 kinase inhibition assay (LANCE Ultra kinase activity assay, PerkinElmer); assay type: biochemical; conditions: 450 μM ATP
Description: as §1, §2

[3] = high-dose group (80 mg/kg/d) vs model group (FIG. 5)
[4] = compared with the model group (FIG. 3)

MNK2, sequence (Q9HBH9 whole entry): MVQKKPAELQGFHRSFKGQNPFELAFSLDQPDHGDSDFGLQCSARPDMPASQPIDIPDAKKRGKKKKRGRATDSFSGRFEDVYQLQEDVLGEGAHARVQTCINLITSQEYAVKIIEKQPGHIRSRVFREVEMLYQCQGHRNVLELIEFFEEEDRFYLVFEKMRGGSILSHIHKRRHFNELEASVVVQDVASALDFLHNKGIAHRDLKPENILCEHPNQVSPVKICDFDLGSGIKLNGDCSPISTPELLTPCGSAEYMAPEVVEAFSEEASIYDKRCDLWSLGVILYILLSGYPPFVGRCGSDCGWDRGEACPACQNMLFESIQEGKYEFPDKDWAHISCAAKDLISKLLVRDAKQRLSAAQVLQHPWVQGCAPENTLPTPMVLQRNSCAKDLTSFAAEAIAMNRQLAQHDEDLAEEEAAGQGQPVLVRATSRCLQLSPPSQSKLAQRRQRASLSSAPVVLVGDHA
MNK1, sequence (Q9BUB5 whole entry): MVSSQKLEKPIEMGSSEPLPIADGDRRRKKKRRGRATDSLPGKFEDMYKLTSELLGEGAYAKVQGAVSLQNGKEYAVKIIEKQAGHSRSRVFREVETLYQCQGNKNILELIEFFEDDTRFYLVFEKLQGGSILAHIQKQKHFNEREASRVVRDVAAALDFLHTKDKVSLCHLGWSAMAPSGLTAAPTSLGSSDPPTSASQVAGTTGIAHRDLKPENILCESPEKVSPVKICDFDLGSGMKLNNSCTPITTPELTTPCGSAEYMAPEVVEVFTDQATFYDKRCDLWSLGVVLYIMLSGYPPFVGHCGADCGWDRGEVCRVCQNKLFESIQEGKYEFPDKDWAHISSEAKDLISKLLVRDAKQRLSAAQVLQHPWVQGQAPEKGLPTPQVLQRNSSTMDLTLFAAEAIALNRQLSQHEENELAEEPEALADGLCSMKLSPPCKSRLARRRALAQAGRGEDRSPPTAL

CN(C)C1CCN(C(=O)c2ccc(-c3nn4c(-c5ccc(C#N)cc5)cnc4s3)cc2)CC1 [Compound 12, 4-(2-(4-(4-(dimethylamino)piperidine-1-carbonyl)phenyl)imidazo[2,1-b][1,3,4]thiadiazol-5-yl)benzonitrile]
body weight [1]: decreased significantly
blood levels of GLP-1 (male db/db mice; FIG. 6): Increased
serum content of insulin INS (male db/db mice; after high dose administration (FIG. 6)): significantly increased
inflammatory cytokine IL-6 (male db/db mice; at low doses (FIG. 6)): significantly decreased
inflammatory cytokine TNF (male db/db mice; at low doses (FIG. 6)): significantly decreased
plasma BNP (male db/db mice; at low doses (FIG. 6)): significantly decreased
insulin sensitivity (insulin tolerance test, ITT) (male db/db mice; db/db mice, gavage 6 weeks, each drug group, especially 12 high-dose group (80 mg/kg/d) (FIG. 4)): significantly improved
serum ALT (male db/db mice; [3]): significant decreases
serum AST (male db/db mice; [3]): significant decreases
serum total bile acid content (male db/db mice; [3]): significant decreases
IC50 (MNK2; five concentrations 10000-1 nM): < 50 nM
inhibition at 1 µM (MNK2; inhibition rate at 1000 nM compound, 60 min, 25° C., read-out: Inhibitory activity(1 μM) MNK2): > 75%
glucose tolerance ([2]; 50 and 100 mg/kg/d (FIG. 2)): improved
serum AST levels ([2]; FIG. 3): significantly reduced
serum creatinine (CREA) ([2]; after administration, vs model group (FIG. 3)): decreased significantly
serum TC [2, 4]: significantly decreased
serum TG [2, 4]: significantly decreased
hypoglycemic effect compared with positive control (metformin, 225 mg/kg) ([2]; high dose group 100 mg/kg/d): better hypoglycemic effect than the positive control
blood glucose ([2]; high dose group 100 mg/kg/d): significantly reduced
insulin sensitivity (insulin tolerance test) ([2]; low and high dose groups vs model group, after intraperitoneal insulin (FIG. 2)): restored insulin sensitivity
hypoglycemic effect compared with positive control (metformin, 225 mg/kg) ([2]; low dose group 50 mg/kg/d): equivalent to that of the positive control group
blood glucose ([2]; low dose group 50 mg/kg/d): significantly reduced
reduction of TC compared with metformin ([2]; metformin 225 mg/kg/d): even better than metformin
IC50 (MNK1; five concentrations 10000-1 nM): < 50 nM
inhibition at 1 µM (MNK1; inhibition rate at 1000 nM compound, 60 min, 25° C., read-out: Inhibitory activity(1 μM) MNK1): > 75%

Source: US20250042920A1 (OCEAN UNIVERSITY OF CHINA, priority 2021, published 2025)
